In PMC8303963, “Action of Multiple Rice β-Glucosidases on Abscisic Acid Glucose Ester” (International Journal of Molecular Sciences, 2021):

Biological target: T1, Os9BGlu31 (Oryza sativa, UniProt B7F7K7)
T1 construct: gene BGLU31; recombinant from E. coli, IMAC purified
T1 sequence (B7F7K7 23-523): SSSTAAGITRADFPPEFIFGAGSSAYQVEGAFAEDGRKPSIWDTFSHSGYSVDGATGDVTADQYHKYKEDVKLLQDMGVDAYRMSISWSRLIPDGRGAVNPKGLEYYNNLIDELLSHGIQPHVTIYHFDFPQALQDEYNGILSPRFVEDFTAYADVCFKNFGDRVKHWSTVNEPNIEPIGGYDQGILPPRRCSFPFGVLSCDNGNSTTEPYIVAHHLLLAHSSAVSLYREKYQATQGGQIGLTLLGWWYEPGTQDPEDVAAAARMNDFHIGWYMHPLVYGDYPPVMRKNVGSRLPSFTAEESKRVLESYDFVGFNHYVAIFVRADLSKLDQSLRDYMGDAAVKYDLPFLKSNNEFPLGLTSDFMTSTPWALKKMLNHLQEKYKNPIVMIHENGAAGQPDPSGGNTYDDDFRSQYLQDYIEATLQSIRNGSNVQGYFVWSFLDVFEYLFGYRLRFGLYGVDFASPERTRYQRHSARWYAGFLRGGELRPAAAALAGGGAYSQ
Assay: preparative transglucosylation, product by NMR and UHPLC
Type: biochemical
Details: glucose acceptor; 10 mM ABA, 10 mM pNPGlc as donor, citrate buffer pH 4.5, 37 °C overnight

CC1=CC(=O)CC(C)(C)[C@@]1(O)/C=C/C(C)=C\C(=O)O [ABA]
preparative transglucosylation, product by NMR and UHPLC: used to transfer glucose from pNPGlc to ABA to generate ABA-GE
